The target of this experiment is T1, PDE9 (PDE9A) (Homo sapiens, UniProt O76083).
T1 construct: full-length recombinant human PDE9
As to the kind of experiment: PDE-Glo phosphodiesterase luminescence assay with cGMP substrate, recombinant human PDE9A. The class given is biochemical.

T1 sequence (O76083 whole entry): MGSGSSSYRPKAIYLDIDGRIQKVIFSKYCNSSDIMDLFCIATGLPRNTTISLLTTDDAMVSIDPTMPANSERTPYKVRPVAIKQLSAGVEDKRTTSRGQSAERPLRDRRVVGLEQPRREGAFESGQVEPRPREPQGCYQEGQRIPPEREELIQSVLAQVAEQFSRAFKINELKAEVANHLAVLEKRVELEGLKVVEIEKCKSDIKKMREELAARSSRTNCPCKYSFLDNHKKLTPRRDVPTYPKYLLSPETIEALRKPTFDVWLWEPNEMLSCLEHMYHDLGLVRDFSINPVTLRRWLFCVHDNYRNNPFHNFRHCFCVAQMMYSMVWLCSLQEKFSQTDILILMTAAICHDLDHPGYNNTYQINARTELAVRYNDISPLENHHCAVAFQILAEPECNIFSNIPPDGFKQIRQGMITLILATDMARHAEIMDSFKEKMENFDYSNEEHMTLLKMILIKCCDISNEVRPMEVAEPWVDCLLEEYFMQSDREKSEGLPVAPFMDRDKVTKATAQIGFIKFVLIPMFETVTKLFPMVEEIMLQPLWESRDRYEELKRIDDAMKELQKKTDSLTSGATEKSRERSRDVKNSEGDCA

As for `CC(C)=CCc1c2c(c3occ(-c4ccc(OS(C)(=O)=O)c(OS(C)(=O)=O)c4)c(=O)c3c1O)C=CC(C)(C)O2` [DB987], the IC50 turned out to be 5.35 nM.

The term IC50 denotes the concentration needed to halve the response being measured.
